In publication PMC4319890, “UFSRAT: Ultra-Fast Shape Recognition with Atom Types –The Discovery of Novel Bioactive Small Molecular Scaffolds for FKBP12 and 11βHSD1” (PLoS ONE, 2015):

What was measured:
11β-HSD1 = test system: 11β-HSD1; parameters: method as in PMID 16087724; conditions: Figure 5 legend; cited from earlier work
Recombinant human FKBP12 [1] = target: T1, Recombinant human FKBP12 (Homo sapiens, UniProt P62942); assay: Thermal denaturation fluorescence (TDF) binding assay
T1 construct: made in house
T1 sequence (P62942 whole entry): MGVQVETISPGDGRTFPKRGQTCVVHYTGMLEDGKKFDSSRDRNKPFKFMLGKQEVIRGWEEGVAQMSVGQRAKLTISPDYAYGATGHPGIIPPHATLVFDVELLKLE
Experimental: Thermal denaturation fluorescence (TDF). A fluorescence based thermal denaturation assay was used to detect binding to FKBP12 essentially as described in the study of Lo [38]. Final conditions were: 50 mM ammonium acetate, pH 7.0; 10 μM FKBP12; 250 μM screening compound and 5x SYPRO orange dye (Invitrogen). […] Protein was melted over the temperature range 20 to 80°C; 0.5°C increment, 30s hold. Compounds were screened for fluorescence in the absence of protein; all samples were solvent matched and repeated in triplicate on 3 separate experiments. Apparent equilibrium dissociation constants (Kd ^app) for the interaction between the protein and ligands were calculated from the change in mid-point melting temperature of the protein (Tm) on addition of ligand and transformed to 25°C using a benchmark value for the enthalpy of ligand binding of -5 kcal∙mol^-1 [39].

Recombinant human FKBP12 [2] = target: T1, Recombinant human FKBP12; assay: Electrospray ionization mass spectrometry (ESI-MS) binding assay; conditions: 50°C; 100 μM ligand, 5 μM FKBP12, 10% methanol, pH 6.8; read-out: ESI-MS Kd^app
Experimental: Electrospray ionization mass spectrometry. Electrospray-ionization mass spectrometry (ESI-MS) was used to detect binding to FKBP12. Data was collected on a LCQ^TMDECA ion-trap instrument (ThermoQuest) run in the positive ion mode. The analyte was introduced by direct infusion and the following operating parameters were employed: nitrogen flow 100units, analyte flow 6 μl∙min^-1, capillary voltage 3.5 kV, cone voltage 25 V and capillary temperature 50°C. Spectrum were averaged over 300 scans (2s/ scan) and processed using the Bioworks Browser V 3.0 software package and ProMass 2.5 (ThermoScientific). The analyte solution consisted of 100 μM ligand, 5 μM FKBP12 in 10% methanol (v/v), 10 mM ammonium acetate, pH 6.8 incubated for 10 minutes at room temperature. Kd ^app for the interaction between the protein and ligand were calculated from the ratio of the intensity of the ion signal from free protein and protein in complex with ligand using the method of Tjernberg.

recombinant h11β-HSD1 = target: T2, recombinant h11β-HSD1 (Homo sapiens, UniProt P28845); assay: Fluorescence assay, inhibition of 11β-HSD1 dehydrogenase activity; assay type: biochemical; conditions: conversion of cortisol to cortisone; 1 μM 11β-HSD1, 200 μM cortisol, 500 μM NADP, pH 7.7, 25°C; read-out: Fluoresc. Ki^app
T2 construct: made in house
T2 sequence (P28845 whole entry): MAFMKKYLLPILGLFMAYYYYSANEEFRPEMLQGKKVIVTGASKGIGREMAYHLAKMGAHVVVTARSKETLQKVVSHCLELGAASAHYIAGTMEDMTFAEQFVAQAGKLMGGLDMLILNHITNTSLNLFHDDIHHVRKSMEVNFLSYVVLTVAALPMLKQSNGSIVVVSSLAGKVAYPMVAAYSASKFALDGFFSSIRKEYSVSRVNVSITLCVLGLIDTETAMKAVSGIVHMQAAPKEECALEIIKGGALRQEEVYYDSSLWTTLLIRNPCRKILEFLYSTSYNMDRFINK
Experimental: Testing for inhibition of 11β-HSD1 dehydrogenase activity. Candidate compounds were tested for inhibition of the conversion of cortisol to cortisone by recombinant h11β-HSD1. The dehydrogenation of cortisol is accompanied by the reduction of NADP^+ to NADPH; this was followed spectrophotometrically and scaled to a NADPH calibration curve. The excitation and emission wavelengths were 340 and 458 nm. (SpectraMax M5, Molecular Devices). The experimental conditions were 500 μM NADP, 1 μM 11β-HSD1, 200 μM cortisol 50 mM Tris, pH 7.7, 50 mM NaCl; 25°C. Reactions were carried out in sextuplicate. Ki ^app were derived from a fit of the rate of the reaction as a function of inhibitor concentration; Kaleidagraph, V4.0 [43]

[3] = target: T3, HEK-293 cells transfected with human 11β-HSD1 (Homo sapiens, UniProt P28845); assay: Scintillation proximity assay (SPA), inhibition of 11β-HSD1 reductase activity in cells; assay type: cell-based; conditions: for IC50: conversion of cortisone to cortisol, 40 nM [3H]-cortisone, 1% DMSO
T3 construct: HEK-293 cells stably transfected with the full length human hsd11b1 gene; expressed in transfected cells; host or cells: HEK-293
T3 sequence (P28845 whole entry): as above
Experimental: Testing for inhibition of 11β-HSD1 reductase activity in cells. Candidate compounds were tested for inhibition of the conversion of cortisone to cortisol by 11β-HSD1 expressed in HEK-293 cells stably transfected with the full length human hsd11b1 gene as previously described. An established scintillation proximity assay (SPA) was carried out in a 96-well plate format, with appropriate controls. Experiments were set up in triplicate with 8 inhibitor concentration points per compound, spanning 3.5 orders of magnitude. Final solution conditions: 40 nM [^3H]-cortisone; 50 mM Tris pH 8.0, 50 mM NaCl; 1% DMSO. The anti-cortisol antibody was purchased from HyTest, Finland; radiometric quantification was carried out on a Perkin Elmer TopCount instrument. The percentage inhibition was determined relative to a non-inhibited control and the IC50 determined from a plot of percentage inhibition against compound concentration. Data were fitted global nonlinear regression using Kaleidagraph V4.0 (Synergy Software).

FKBP12 = target: FKBP12; parameters: method as in PMID 18038971; conditions: 27°C printed for Q2; cited from earlier work
[4] = at the mid-point melting temperature Tm, 10 μM FKBP12, 250 μM compound, pH 7.0, read-out: TDF Kd^app at Tm
[5] = value in brackets, transformed to 25°C using a benchmark enthalpy of ligand binding of -5 kcal/mol, read-out: TDF Kd^app (transformed 25°C) (converted)

Compound | Kd (Recombinant human FKBP12 [1]; [4]) | Kd (Recombinant human FKBP12 [1]; [5]) | Kd (Recombinant human FKBP12 [2]) | Ki (recombinant h11β-HSD1) | also measured
CC1(C)[C@@H](OC(=O)CCC(=O)O)CC[C@]2(C)[C@H]3C(=O)C=C4[C@@H]5C[C@@](C)(C(=O)O)CC[C@]5(C)CC[C@@]4(C)[C@]3(C)CC[C@@H]12 [Carbenoxolone] |  |  |  |  | inhibitor of 11β-HSD1 (potency, type not given) (11β-HSD1): 0.02 µM
O=C(CNC(=O)c1ccccc1C(=O)O)c1ccccc1 [Compound 1, 2-(phenacylcarbamoyl)benzoic acid] | 548 ± 38 µM | 252 µM | 313 ± 30 µM |  | 
CC(NC(=O)c1ccccc1)C(O)c1ccccc1 (centres unmarked) [Compound 2, N-(2-hydroxy-1-methyl-2-phenyl-ethyl)benzamide] | 575 ± 70 µM | 266 µM | 399 ± 45 µM |  | 
O=C(NCC(O)c1ccccc1)c1cccc(Cl)c1 (centres unmarked) [Compound 3, 3-chloro-N-(2-hydroxy-2-phenyl-ethyl)benzamide] | 568 ± 84 µM | 263 µM | 383 ± 52 µM |  | 
CC(=O)Nc1ccccc1NC(=O)CCc1ccccc1 [Compound 4, N-(2-acetamidophenyl)-3-phenyl-propanamide] | 648 ± 88 µM | 303 µM | 281 ± 42 µM |  | 
COc1ccc(/C=C/C(=O)/C=C/c2ccc(OC)c(OC)c2)cc1OC [Compound 5, (1E,4E)-1,5-bis(3,4-dimethoxyphenyl)penta-1,4-dien-3-one] |  |  |  | 142 ± 66 µM | IC50 [3]: 11.3 ± 2.6 µM
COc1ccc2[nH]c(SCC(=O)c3ccc(O)c(O)c3)nc2c1 [Compound 7, 1-(3,4-dihydroxyphenyl)-2-[(6-methoxy-1H-benzimidazol-2-yl)sulfanyl]ethanone] |  |  |  | 248 ± 73 µM | IC50 [3]: 7.9 ± 3 µM
COc1ccc(C(=O)CSc2ccccn2)cc1 [Compound 8, 1-(4-methoxyphenyl)-2-(2-pyridylsulfanyl)ethanone] |  |  |  | 26 ± 7 µM | IC50 [3]: 0.067 ± 0.003 µM; affinity IC50 in a cell based assay (in words) ([3]; discussion): low nanomolar
Cc1ccc(SCC(=O)N2CCOCC2)cc1 [Compound Q2, 1-morpholino-2-(p-tolylsulfanyl)ethanone, reference compound] | 28 ± 8 µM | 6 µM | 197 ± 74 µM |  | Kd (FKBP12): 15 µM
Cc1ccc(S(=O)(=O)CC(=O)N2CCOCC2)cc1 [Compound Q3, 2-[(4-methylbenzene)-sulfonyl]-1-(morpholin-4-yl)ethan-1-one] |  |  |  |  | Kd (FKBP12): 95 µM
Dihydroxyphenyl)-2-oxoethyl]sulfanyl}-1H-tetrazol-1-yl)benzamide [Compound 6] |  |  |  | 47 ± 13 µM | 
